Assays:
H1299 cells [1] = experiment: MTT cell growth after EFHD2 knockdown; type: cell-based, human; settings: EFHD2 knockdown in H1299 cells
Procedure: MTT assay. […] The absorbance of the solution at 570 nm was measured by spectrophotometer.
To determine whether EFHD2 contributes to the metastatic abilities of lung adenocarcinoma cells, the pcDNA vector was used to overexpress EFHD2 in A549 cells and shRNA (i.e., shEFHD2) to knockdown EFHD2 in H1299 cells.

H1299 cells [2] = experiment: Wound-healing migration and transwell invasion after EFHD2 knockdown; type: cell-based, human; settings: EFHD2 knockdown in H1299 cells
Procedure: FIG. 1. EFHD2 increases the metastatic abilities of lung adenocarcinoma cells. The effects of EFHD2 overexpression in A549 cells and EFHD2-knockdown in H1299 cells on metastatic abilities were determined. (A) Migration ability was analyzed by wound-healing assay. (B) Invasive ability was analyzed by transwell invasion assay. (C) Invadopodia were visualized by colocalized of cortactin (green) and F-actin (red). (D) Quantification of cancer cells with invadopodia. N=100 cells/sample. **, P<0.01.
Wound healing assay. The in vitro migration assay was performed using a Culture-Insert well (ibidi GmbH, German/v). Cancer cells (4.5×10^4 cells) were cultured in suitable media in the device for 24 hr. After removal of the Culture-Insert, cancer cells were cultured for an additional 8 hr. The migration distance of cancer cells was recorded, and the migration area was measured using ImageJ software.
Matrigel invasion assay. For in vitro invasion assay, cancer cells (1.5×10^5 cells in 200 μL) were suspended in the upper half of a PET membrane transwell insert chamber (BD Biosciences), which was coated with Matrigel (1 mg/mL; BD Biosciences), on a 24-well plate. […]

Substance: shEFHD2: short hairpin RNA directing cleavage of EFHD2 gene RNA; SEQ ID NO: 4, encoded by SEQ ID NO: 1 (GGCCCUCUUCUACAAGUUCGUCAUAGAGCUCUAUGACGAACUUGUAGAAGAGAAAAAAC; expressed or natural sequence)
- cell growth (H1299 cells [1]): did not obviously affect cell growth
- invasiveness (H1299 cells [2]; transwell invasion assay): opposite effects
- migration (H1299 cells [2]; wound-healing assay): opposite effects

Reference: US20220000817A1, “PROGNOSIS AND TREATMENT OF METASTATIC CANCER” (Academia Sinica, priority 2018, published 2022)
